Results as given in patent publication US20050075361A1 (priority 2002, published 2005).
Like-named read-outs stand apart in the source and are kept apart here.

Tests used:
male Sprague-Dawley rats = conditions: rat, in vivo
[1] = cited from earlier work
[2] = cited from earlier work; remark: listed apart in the source
[3] = parenteral, weight basis; cited from earlier work
[4] = intravenous, single dose of about 0.3 mg

Compound | Analgesic duration (male Sprague-Dawley rats) | duration of analgesic action (male Sprague-Dawley rats) | Analgesic duration (male Sprague-Dawley rats; sc) | duration of action (male Sprague-Dawley rats; sc) | Cmax ([1]; 0.4 mg sublingual dose) | Tmax ([1]; 0.4 mg sublingual dose) | systemic availability ([1]; 0.4 mg sublingual dose) | Total plasma clearance ([1]; conscious postoperative patients) | mean peak plasma buprenorphine concentration ([1]; intramuscular second 0.3-mg dose 3 hours after initial intravenous dose) | plasma concentration ([1]; intramuscular second 0.3-mg dose, after about 3 hours) | plasma concentration ([1]; intravenous about 0.3 mg, after about 5 minutes) | plasma concentration ([1]; intravenous about 0.3 mg, after about 3 hours) | mean peak plasma drug concentration [1, 4] | time of peak plasma concentration [1, 4] | duration of action ([2]; intramuscular or intravenous injection) | analgesic potency relative to meperidine [3] | analgesic potency relative to pentazocine [3] | mean duration of analgesia ([2]; single intramuscular or intravenous dose of 0.2 to 0.3 mg or 2 to 4 μg/kg)
CO[C@@]12CCC3(C[C@@H]1C(C)(O)C(C)(C)C)[C@H]1Cc4ccc(O)c5c4[C@@]3(CCN1CC1CC1)[C@H]2O5 (stereo partly drawn) [Buprenorphine base, (5α,7α(S)-17-cyclopropyl-methyl)-α-(1,1-dimethylethyl)-4,5-epoxy-18,19-dihydro-3-hydroxy-6-methoxy-α-methyl-6,14-ethenomorphinan-7-methanol] | 48; 48; 50 h | 48 to 50 h | 48; 50; 48 h | 48 to 50 h | – | – | – | – | – | – | – | – | – | – | – | – | – | –
CO[C@@]12CCC3(C[C@@H]1C(C)(O)C(C)(C)C)[C@H]1Cc4ccc(O)c5c4[C@@]3(CCN1CC1CC1)[C@H]2O5 (stereo partly drawn) [Buprenorphine, (5α,7α(S)-17-cyclopropyl-methyl)-α-(1,1-dimethylethyl)-4,5-epoxy-18,19-dihydro-3-hydroxy-6-methoxy-α-methyl-6,14-ethenomorphinan-7-methanol] | – | – | – | – | 0.5 ± 0.06 ng/mL | 3.5 ± 0.667 h | 57.7±6% | approximately 0.28 L/minute | about 3.6 ng/mL | about 0.4 ng/mL | about 9 ng/mL | about 0.4 ng/mL | about 18 ng/mL | ≤ 2 min | 6 to 8 h | about 600 times | about 200 times | –
CO[C@@]12CC[C@@]3(C[C@@H]1[C@](C)(O)C(C)(C)C)[C@H]1Cc4ccc(O)c5c4[C@@]3(CCN1CC1CC1)[C@H]2O5.Cl [Buprenorphine HCl, buprenorphine hydrochloride] | 5 h | 3 to 5 h | – | – | – | – | – | – | – | – | – | – | – | – | – | – | – | six
